Source: ChEMBL document CHEMBL1201862, “PubChem BioAssay data set” (2004)
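Growth conditions: 96-well plates. Treatment: test compound, 48 hours, 5 concentrations. Analysis: linear interpolation between bracketing concentrations; unreached endpoints set to highest concentration. GI50 is the concentration that inhibits growth by half.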 Calls of active or inactive are those of the source. No stated cut-off is given here; in the data, active = GI50 up to about 1.1 µM and inactive = higher.

Key:
Assay in all cases: DTP human tumour cell line panel, 48 h
786-0 = system: 786-0
M14 = system: M14
IGROV-1 = system: IGROV-1
CCRF-CEM = system: CCRF-CEM
SR = system: SR
NCI-H460 = system: NCI-H460
M19-MEL = system: M19-MEL
OVCAR-8 = system: OVCAR-8
SK-MEL-2 = system: SK-MEL-2
A498 = system: A498
U-251 = system: U-251
HCT-116 = system: HCT-116
RPMI-8226 = system: RPMI-8226
OVCAR-4 = system: OVCAR-4
TK-10 = system: TK-10
MCF7 = system: MCF7

Measured: GI50

CN(c1ccccc1)C(c1ccccc1)C(O)c1ccccc1 (stereo unspecified)
inactive: 786-0 18.2 µM | M14 16.6 µM | IGROV-1 22.2 µM | CCRF-CEM 26.7 µM | SR 20.6 µM | NCI-H460 20.1 µM | M19-MEL 23.1 µM | OVCAR-8 19.2 µM | SK-MEL-2 16.7 µM | A498 22 µM | U-251 17.9 µM | HCT-116 18.6 µM | RPMI-8226 20.8 µM | OVCAR-4 18.1 µM | TK-10 24.2 µM

CCN(CC)CCN1C(=O)CC2[C@@H]3CCc4cc(OC)ccc4C3CC[C@]2(C)C1=O (stereo partly specified)
inactive: 786-0 17.3 µM | M14 17.7 µM | IGROV-1 75.2 µM | CCRF-CEM 18.8 µM | SR > 10 µM | NCI-H460 37.6 µM | M19-MEL 18.7 µM | SK-MEL-2 20.9 µM | A498 36 µM | U-251 31.6 µM | HCT-116 > 10 µM | RPMI-8226 21.7 µM | OVCAR-4 > 100 µM

CCOC(=O)C(C)(NC(=O)c1ccc(NCc2ccc3nc(NC(=O)c4ccccc4)nc(NC(=O)c4ccccc4)c3c2)cc1)C(=O)OCC
inactive: 786-0 3.19 µM | M14 13 µM | IGROV-1 19.9 µM | SR 34.9 µM | NCI-H460 14.5 µM | M19-MEL 8.93 µM | OVCAR-8 4.68 µM | SK-MEL-2 14.1 µM | A498 9.35 µM | U-251 7.11 µM | HCT-116 6.97 µM | RPMI-8226 18.3 µM | OVCAR-4 2.09 µM | TK-10 19.9 µM

COc1ccc(OCC(=O)O)c(C(=O)CCC(=O)O)c1
inactive: 786-0 > 100 µM | M14 > 10 µM | IGROV-1 > 100 µM | CCRF-CEM > 100 µM | SR > 100 µM | NCI-H460 > 100 µM | M19-MEL > 100 µM | OVCAR-8 > 100 µM | SK-MEL-2 > 100 µM | A498 > 100 µM | U-251 > 100 µM | HCT-116 > 100 µM | RPMI-8226 > 100 µM | OVCAR-4 > 100 µM | TK-10 > 100 µM

CC(C)c1cc2c(O)c(c1)Cc1cc(C(C)C)cc(c1O)Cc1cc(C(C)C)cc(c1O)Cc1cc(C(C)C)cc(c1O)C2
inactive: 786-0 > 100 µM | IGROV-1 > 100 µM | CCRF-CEM > 100 µM | SR > 100 µM | NCI-H460 > 100 µM | M19-MEL > 100 µM | OVCAR-8 > 100 µM | SK-MEL-2 > 100 µM | A498 > 100 µM | U-251 > 100 µM | HCT-116 > 100 µM | RPMI-8226 > 100 µM | OVCAR-4 > 100 µM | TK-10 > 100 µM

NCCCC(N)(C(=O)O)C(F)F (stereo unspecified) [EFLORNITHINE]
inactive: 786-0 > 100 µM | M14 > 100 µM | IGROV-1 > 5000 µM | CCRF-CEM > 1580 µM | SR > 100 µM | NCI-H460 933 µM | MCF7 > 5000 µM | M19-MEL > 3450 µM | SK-MEL-2 > 5000 µM | A498 > 5000 µM | U-251 > 5000 µM | HCT-116 815 µM | RPMI-8226 > 5000 µM | OVCAR-4 > 5000 µM | TK-10 > 100 µM

COc1cccc(SSc2cccc(OC)c2C(=O)O)c1C(=O)O
inactive: 786-0 > 100 µM | M14 > 100 µM | IGROV-1 > 100 µM | CCRF-CEM > 100 µM | SR > 100 µM | NCI-H460 > 100 µM | M19-MEL > 100 µM | OVCAR-8 > 100 µM | SK-MEL-2 > 100 µM | A498 > 100 µM | U-251 > 100 µM | HCT-116 > 100 µM | RPMI-8226 > 100 µM | OVCAR-4 > 100 µM | TK-10 > 100 µM

Cc1cc(NC(=O)C2C3C=CC(O3)C2C(=O)O)no1 (stereo unspecified)
inactive: 786-0 17.4 µM | M14 > 100 µM | IGROV-1 > 100 µM | CCRF-CEM 19.1 µM | SR 21.8 µM | NCI-H460 31.7 µM | M19-MEL 28.1 µM | OVCAR-8 16.2 µM | SK-MEL-2 > 100 µM | A498 48 µM | U-251 21.3 µM | HCT-116 17 µM | RPMI-8226 16.6 µM | OVCAR-4 88.1 µM | TK-10 > 100 µM

CC(=O)NNc1nc(C)c(C(=O)NNC(=O)C(=O)Nc2c([N+](=O)[O-])ccc(C)c2C)s1
inactive: 786-0 > 100 µM | M14 > 100 µM | IGROV-1 > 100 µM | CCRF-CEM 31 µM | SR 92.3 µM | NCI-H460 > 100 µM | M19-MEL > 100 µM | OVCAR-8 > 100 µM | SK-MEL-2 > 100 µM | A498 31.6 µM | U-251 > 100 µM | HCT-116 > 100 µM | RPMI-8226 > 100 µM | OVCAR-4 52.8 µM | TK-10 > 100 µM

COC(=O)C(=O)C(C(=O)OC)C(=O)C(=O)Nc1c(C)cccc1C (stereo unspecified)
inactive: 786-0 > 100 µM | M14 > 100 µM | IGROV-1 > 100 µM | CCRF-CEM 48.2 µM | SR > 100 µM | NCI-H460 > 100 µM | M19-MEL > 100 µM | OVCAR-8 > 100 µM | SK-MEL-2 > 100 µM | A498 > 100 µM | U-251 > 100 µM | HCT-116 > 100 µM | RPMI-8226 > 100 µM | OVCAR-4 > 100 µM | TK-10 > 100 µM
